Assay results: patent publication US10471035B2, “Compositions and methods for using esters of meroterpenes and of other resveratrol analogues” (Sunny BioDiscovery, priority 2014, dated 2019)
Values after ≈ are worked out from the molar mass of the structure shown.

Assays:
[1] = UVB irradiation, HPLC-MS profile; assay type: physicochemical
Excerpt: Both compounds were irradiated with UVB light and their HPLC-MS profile was compared to their respective non-irradiated controls. FIGS. 2, 3, 6, and 7 show HPLC chromatograms of UVB-irradiated (lower portions) and non-irradiated samples (upper portions) of bakuchiol (FIGS. 2 and 3) and SBD.SE (FIGS. 6 and 7) detected at 254 nm (FIGS. 2 and 6) and 230 nm (FIGS. 3 and 7).

[2] = test system: mouse melanoma cells (B16F10); assay: B16F10 melanoma growth and melanin; assay type: cell-based
Excerpt: Instead, cells cultured in the presence of SBD.SE grew slower and if allowed to reach monolayer, they become growth-arrested due to contact inhibition. […] Other retinoids, such as bexarotene, are known to have antineoplastic activity against cancers such as cutaneous T cell lymphoma.
The mechanism of action for this effect may be multifactorial and involve the inhibition of tyroinase and/or melanin secretion by melanocytes.

[3] = test system: cytokine-treated HEK; assay: Morphology of cytokine-treated HEK; assay type: cell-based, human; conditions: 10 μg/ml; IL17A, IL22 and TNF-alpha
Excerpt: This is in agreement with the Example 3, showing that SBD.SE decreases cellular response to cytokine stimulus (Table 1).

[4] = DPPH assay (free radical scavenging); assay type: biochemical; conditions: 520 nm
Excerpt: The objective of this experiment was to determine the antioxidant capacity of SBD.SE, using DPPH assay methodology. DPPH (2,2-diphenyl-1-picrylhydrazyl) is a stable free radical. The principle of the DPPH assay uses the reduction of the DPPH radical (purple) to diphenylpicrylhydrazine (yellow) as an indication of free radical scavenging capacity of a given test material (Schenk, G. H., Swieczkowski, N. K., “Colorimetric determination of pyrogallol and 2,6-dimethoxyphenol with diphenylpicrylhydrazyl,” Talanta, 1971, 18:230-4). Following the incubation of a test agent with DPPH solution, a reduction in absorbance at 520 nm compared to control is indicative of DPPH-scavenging. The degree of DPPH scavenging activity is expressed as % water control.

[5] = test system: P. acnes; assay: MIC against planktonic P. acnes; assay type: cell-based, Propionibacterium acnes; conditions: Cutibacterium acnes; exponentially-growing planktonic bacteria, oxygen-free atmosphere; read-out: MIC (minimal inhibitory concentration)
Experimental: Serial dilutions of SBD.SE and SBD.FA were incubated with exponentially-growing planktonic P. acnes bacteria in oxygen-free atmosphere.
The MIC (minimal inhibitory concentration) for SBD.SE was determined to be about 30 μg/ml and for SBD.FA—about 60 μg/ml.

[6] = test system: 3T3 cells; assay: 3T3 Neutral Red phototoxicity (OECD 432); assay type: cell-based; conditions: up to at least 100 μg/ml
Experimental: Phototoxicity is defined as light-activated cytotoxicity. […] The protocol followed in this example was based on the OECD 432 Guidelines. Four 96 well plates were seeded with 3T3 cells (Sigma, St. Louis, Mo.; cat. 93061524-1VL) at 10,000 cells per well in DMEM supplemented with 10% iron-fortified calf serum, and grown overnight in humidified atmosphere at 37° C. in 5% CO2. Serial dilutions of SBD.SE and chlorpromazine (positive control) were added to 2 plates each. […]
[…] Plates were returned to the incubator for 24 h, afterward the medium was removed, cells were rinsed with PBS and placed in Neutral Red medium at 50 μg/ml in which cells were incubated for 3 more hours. Wells were then washed with PBS and Neutral Red was extracted from cells with 1.0% Glacial Acetic Acid/50% Ethanol/49% H2O solution.
Following a 30-minute extraction with mixing, the absorbance of each well was measured at 570 nm with Molecular Devices SpectraMax® microplate spectrophotometer. P values were calculated using two-tailed Student's test and p=0.05 was set as borderline for statistical significance.

Compound: C=C[C@@](C)(/C=C/c1ccc(OC(=O)c2ccccc2O)cc1)CCC=C(C)C [SBD.SE, Salicylic acid ester of bakuchiol]
- stability under UVB irradiation (HPLC-MS) [1]: no difference in mass of the peaks
- growth of B16F10 cells ([2]; 1 μg/ml to 10 μg/ml): inhibited the growth
- inhibition at 2.5 µg/mL ([2]; Mus musculus, B16-F10, 2.5 μg/ml, read-out: inhibition of B16F10 melanocyte proliferation): 44%
- melanin in growth medium ([2]; versus darkened medium of water control): completely deprived of melanin
- cytokine-induced morphologic changes [3]: prevents these changes
- DPPH color (% Control) ([4]; 0.5 ug/ml): 86 % Control
- DPPH color (% Control) ([4]; 2 ug/ml): 89 % Control
- DPPH color (% Control) ([4]; 10 ug/ml): 59 % Control
- DPPH color (% Control) ([4]; 16 ug/ml): 28 % Control
- DPPH color (% Control) ([4]; 40 ug/ml): 6 % Control
- MIC [5]: ~30 µg/mL (≈ 79.7 µM)
- cytotoxicity in absence and presence of UVB light [6]: lack of significant cytotoxicity
